According to publication PMC7865655, “Click Conjugation of Boron Dipyrromethene (BODIPY) Fluorophores to EGFR-Targeting Linear and Cyclic Peptides” (Molecules, 2021):

Columns and labels:
HEp2 cells [1] = assay: Phototoxicity (~1 J·cm^−2), CellTiter Blue assay; type: cell-based, human; details: up to 100 µM, light dose ~1 J·cm^−2, CellTiter Blue
Experimental: In addition to dark toxicity, phototoxicity was assessed for the BODIPYs and their conjugates, under a low light dose of ~1 J·cm^−2 in human carcinoma HEp2 cells using the CTB assay to determine cell viability. Dose-dependent cell survival curves of each compound over the incubation period of 24 h are shown in Figure S20 (Supporting Information). […] Nevertheless, all conjugates are considered to have low phototoxicity in HEp2 cells at the low light dose used in this study.
(§1) For cellular studies, commercially available reagents and culture media were purchased from Life Technologies (Carlsbad, CA, USA) and human carcinoma HEp2 (ATCC CCL-23) cells were purchased from the American Type Culture Collection (ATCC) (Manassas, Virginia, USA). HEp2 cells were cultured and maintained at 37 °C under 5% CO2 and 95% humidity in minimum essential media (MEM) supplemented with 10% fetal bovine serum (FBS) and 1% penicillin-streptomycin (P/S).
HEp2 cells were exposed to working solutions of each compound up to 100 µM (0, 3.125, 6.25, 12.5, 25, 50, and 100 µM) and incubated for 24 h (5% CO2, 95% humidity, 37 °C). The loading medium was removed and the cells were washed with PBS solution. […] Cell viability was assessed as described above.

HEp2 cells [2] = assay: Dark cytotoxicity, CellTiter Blue assay; type: cell-based, human; details: 24 h incubation, up to 200 µM, darkness
Experimental: The dark toxicity of all compounds was determined in HEp2 cells at concentrations up to 200 µM, using a CellTiter Blue (CTB) assay to determine cell viability. BODIPYs 1 and 2 (lacking peptide) were included in this study for comparison purposes. […] This might be a result of the presence of the indole group, since it is a known pharmacophore and the basis of many drugs, such as indomethacin [44, 49].
as §1
Stock solutions (32 mM) for compounds 1, 2, 3, 4, and 5 were prepared using 100% DMSO as the solvent. […] Following the incubation period, cell viability was assessed by determining fluorescence intensity at 570/615 nm using a BMG FLUOstar Optima microplate reader (BMG Labtech, Cary, NC, USA). The fluorescence intensity was normalized to 100% for untreated cells and the results are expressed as a percentage of viable cells.

HT-29 cells = assay: Competitive binding of conjugate 5 with cycloL1.1, BODIPY fluorescence; type: cell-based; details: HT-29 (~78% EGFR expression); conjugate 5 at 50 μM, cyclo(K(N3)larllt) 0.25 to 100 μM, 45 min, 37 °C, PBS; ex 614 / em 648 nm; triplicate
Experimental: In these studies, HT-29 (~78% EGFR expression), DLD-1 (~40% EGFR expression), and LOVO (~6% EGFR expression) were used.
Cells HT-29 (~78% EGFR) DLD-1 (~37% EGFR) and LOVO (~6% EGFR) with high, moderate, and low EGFR expressions, respectively, were used in these studies. About ten thousand cells of each cell line were coated in a 96 well clear bottom tissue culture black plate and incubated overnight at 37 °C with 5% CO2. […] PBS was used for dilution of compounds. The plate was then covered in aluminum foil and incubated at 37 °C with 5% CO2. After 45 min, each well was washed twice with 100 μL of PBS, and fluorescence was determined with a microplate reader using an excitation wavelength of 614 nm and an emission wavelength of 648 nm. Autofluorescence values were subtracted from each well. A plot of concentrations vs. relative fluorescence was plotted. Results in Figure 4 are expressed as ±S.E.

[3] = test system: extracellular domain of EGFR; details: cited from earlier work; for affinity for EGFR (in words): binding to domain I of the extracellular domain of EGFR
From the text: (§2) We have previously reported the conjugation of BODIPYs to the EGFR-L1 peptide via traditional amidation reactions, and nucleophilic additions to isothiocyanato-functionalized fluorophores. Herein we report the use of click chemistry for conjugation of two EGFR-L1-derived peptides bearing an azide N-terminus (cycloL1.1 and L1.5) to alkynyl-functionalized BODIPYs. […] In previous work, we reported the conjugation of this peptide to a porphyrin [19], phthalocyanine, and BODIPY dyes, using either traditional amidation methodologies or nucleophilic addition to isothiocyanato-functionalized fluorophores. […] In order ...

[4] = cited from earlier work
From the text: as §2

Row | Molecule | affinity for EGFR (in words) [3] | stability in human serum (in words) [4] | other results
1 | CCC1=C(C)C2=C(c3ccc(OCc4cn(CCCC[C@H](N)C(=O)N[C@@H](CC(C)C)C(=O)N[C@@H](C)C(=O)N[C@@H](CCCNC(=N)N)C(=O)N[C@@H](CC(C)C)C(=O)N[C@@H](CC(C)C)C(=O)N[C@H](C(N)=O)[C@@H](C)O)nn4)cc3)c3c(C)c(CC)c(C)n3[B-](F)(F)[N+]2=C1C [Conjugate 3, 1,3,5,7-tetramethyl-2,6-diethyl-8-(4-phenoxymethyltriazole K(N3)LARLLT)-BODIPY] | – | – | phototoxicity, ranking in words (HEp2 cells [1]): least toxic; dark toxicity, ranking in words (HEp2 cells [2]): least toxic
2 | CC(C)C[C@H]1NC(=O)[C@H](CCCCN=[N+]=[N-])NC(=O)[C@@H]([C@H](C)O)NC(=O)[C@@H](CC(C)C)NC(=O)[C@@H](CC(C)C)NC(=O)[C@@H](CCCNC(=N)N)NC(=O)[C@@H](C)NC1=O [cycloL1.1, cyclo(K(N3)larllt)] | high affinity | enhanced stability in human serum | competitive binding: change of BODIPY fluorescence intensity with added cyclic peptide (HT-29 cells): able to replace conjugate 5 competitively
3 | K(N3)LARLLT [Conjugate L1.5, linear EGFR-L1-derived azido peptide] | increased affinity for EGFR compared to the parent peptide | enhanced stability in human serum | –
4 | LARLLT [EGFR-L1, EGFR-targeting peptide ligand reported in 2009 by Song et al, reference compound] | – | – | affinity for the extracellular domain of EGFR (in words) ([3]; both in vitro and in vivo): high affinity
